Reference: paper PMC3037272 (Journal of medicinal chemistry, 2010)

Experiments:
[1] = target: T1, 26S proteasome β1 subunit (Oryctolagus cuniculus, UniProt A0A5F9DQW2); assay type: biochemical, rabbit
T1 sequence (A0A5F9DQW2 1-212): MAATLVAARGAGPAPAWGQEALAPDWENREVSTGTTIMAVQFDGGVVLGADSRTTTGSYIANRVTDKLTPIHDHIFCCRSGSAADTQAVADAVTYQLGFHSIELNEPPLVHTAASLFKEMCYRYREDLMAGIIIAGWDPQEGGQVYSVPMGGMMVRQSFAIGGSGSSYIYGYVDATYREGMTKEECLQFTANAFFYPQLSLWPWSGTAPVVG

[2] = target: T2, 26S proteasome β2 subunit (Oryctolagus cuniculus, UniProt G1SWK8)
T2 sequence (G1SWK8 1-271): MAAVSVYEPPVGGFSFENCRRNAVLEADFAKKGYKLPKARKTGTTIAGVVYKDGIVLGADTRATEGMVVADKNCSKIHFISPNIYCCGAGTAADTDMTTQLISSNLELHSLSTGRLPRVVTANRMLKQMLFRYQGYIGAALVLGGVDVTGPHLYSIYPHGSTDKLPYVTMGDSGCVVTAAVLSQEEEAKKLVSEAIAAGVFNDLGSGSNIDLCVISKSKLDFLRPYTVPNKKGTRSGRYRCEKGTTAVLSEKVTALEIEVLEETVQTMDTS

[3] = target: T3, 26S proteasome β5 subunit (Oryctolagus cuniculus, UniProt G1T4Q9); assay type: biochemical, rabbit
T3 sequence (G1T4Q9 1-263): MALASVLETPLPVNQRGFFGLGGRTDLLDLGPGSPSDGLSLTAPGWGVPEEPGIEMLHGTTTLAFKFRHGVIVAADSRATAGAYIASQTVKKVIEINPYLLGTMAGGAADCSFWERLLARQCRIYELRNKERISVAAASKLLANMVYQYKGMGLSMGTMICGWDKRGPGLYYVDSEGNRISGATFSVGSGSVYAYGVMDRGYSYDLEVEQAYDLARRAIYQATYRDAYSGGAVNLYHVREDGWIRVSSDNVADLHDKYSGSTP

proteasome β5 subunit = proteasome β5 subunit (Homo sapiens, UniProt P28074); test: Competition assay against fluorescent probe MV151; assay type: binding; settings: HEK-293 lysate
proteasome β2 subunit = proteasome β2 subunit (Homo sapiens, UniProt Q99436); test: Competition assay against fluorescent probe MV151; settings: HEK-293 lysate
proteasome β1 subunit = proteasome β1 subunit (Homo sapiens, UniProt P28072); test: Competition assay against fluorescent probe MV151; assay type: binding; settings: HEK-293 lysate, between 100 and 250 nM, competition against 9

Row | SMILES | IC50 [1] | IC50 [2] | IC50 [3] | concentration at which labeling of the β5 subunit is visible (proteasome β5 subunit; direct fluorescent labeling, read-out at 520 nm) | β2 band in competition assay (proteasome β2 subunit; 1 μM inhibitor, Figure 3) | effect on β2 when β5 is saturated (proteasome β2 subunit; between 100 and 250 nM, competition against 9) | concentration at which inhibition of β5 is apparent (proteasome β5 subunit; concentration series 1 nM to 1 μM, competition against 9) | effect on β1 when β5 is saturated (proteasome β1 subunit)
1 | CC(C)C[C@H](NC(=O)[C@H](Cc1c(F)c(F)c(F)c(F)c1F)NC(=O)c1cnccn1)B1OC2C[C@@H]3C[C@@H](C3(C)C)[C@]2(C)O1 (some centres unmarked) [2a] | 0.44 µM |  |  |  |  |  |  | 
2 | CC(C)C[C@H](NC(=O)[C@H](Cc1cc(C(F)(F)F)cc(C(F)(F)F)c1)NC(=O)[C@H](Cc1ccccc1)NC(=O)[C@H](Cc1ccccc1)N=[N+]=[N-])C(=O)[C@@]1(C)CO1 [4b] | > 15 µM | > 15 µM | 0.1 µM |  |  |  |  | 
3 | CC(C)C[C@H](NC(=O)[C@H](Cc1ccccc1)NC(=O)[C@H](Cc1cc(C(F)(F)F)cc(C(F)(F)F)c1)NC(=O)[C@H](Cc1ccccc1)N=[N+]=[N-])C(=O)[C@@]1(C)CO1 [5b] | > 15 µM | > 15 µM | 0.13 µM |  |  |  |  | 
4 | CC1=CC(C)=[N+]2C1=C(CCCCc1cn([C@@H](Cc3ccccc3)C(=O)N[C@@H](Cc3ccccc3)C(=O)N[C@@H](Cc3c(F)c(F)c(F)c(F)c3F)C(=O)N[C@@H](CC(C)C)C(=O)[C@@]3(C)CO3)nn1)c1c(C)cc(C)n1[B-]2(F)F [compound 7] | > 10 µM | > 10 µM | 0.3 µM | 1 nM |  |  |  | 
5 | CC(C)C[C@H](NC(=O)[C@H](Cc1ccccc1)NC(=O)[C@H](Cc1ccccc1)NC(=O)[C@H](Cc1ccccc1)N=[N+]=[N-])C(=O)[C@@]1(C)CO1 [compound 3] | > 15 µM |  |  |  |  |  |  | 
6 | CC(C)C[C@H](NC(=O)[C@H](Cc1c(F)c(F)c(F)c(F)c1F)NC(=O)[C@H](Cc1ccccc1)NC(=O)[C@H](Cc1ccccc1)N=[N+]=[N-])C(=O)[C@@]1(C)CO1 [4a] | > 15 µM |  |  |  | the majority of the corresponding band in Figure 3 is gone | unaffected or even upregulated | 5 nM | unaffected or even upregulated
7 | CC(C)C[C@H](NC(=O)[C@H](Cc1cc(C(F)(F)F)cc(C(F)(F)F)c1)NC(=O)c1cnccn1)B1OC2C[C@@H]3C[C@@H](C3(C)C)[C@]2(C)O1 (some centres unmarked) [2b] | 0.16 µM | 11 µM | 0.003 µM |  |  |  |  | 
8 | CC(C)C[C@H](NC(=O)[C@H](Cc1ccccc1)NC(=O)[C@H](Cc1c(F)c(F)c(F)c(F)c1F)NC(=O)[C@H](Cc1ccccc1)N=[N+]=[N-])C(=O)[C@@]1(C)CO1 [5a] | > 15 µM | > 15 µM | 0.2 µM |  |  |  |  | 
